Measured values: article PMC7177633, “Effective Cellular Transport of Ortho-Halogenated Sulfonamide Derivatives of Metformin Is Related to Improved Antiproliferative Activity and Apoptosis Induction in MCF-7 Cells” (International Journal of Molecular Sciences, 2020)
Read-outs that look alike come from different tables or passages of the source.

Columns and labels:
[1] = system: MCF-7 cells; assay: Cellular uptake of metformin sulfonamides in MCF-7 cells (HPLC); type: in vitro ADME, human
Procedure: (§1) The uptake of metformin sulfonamides (1–9) in MCF-7 and MDA-MB-231 cells was studied by incubation of the cells with 10−3000 μmol/L of compounds in 250 μL of prewarmed HBSS buffer at 37 °C for 10 min. Subsequently, the cells were then washed three times with 500 μL of ice-cold HBSS and lysed with 250 μL of 0.1-M NaOH. The samples were collected, centrifuged (5 min, 1400 rpm) and the supernatants were analyzed by the HPLC method. The concentration of each compound in the cells was calculated on the basis of the standard curve prepared by spiking known amounts of every compound on the cell layers in 250 μL of 0.1-M NaOH.
(§2) The concentration of the studied sulfonamides (1–9) was assessed using the HPLC system, consisting of an Agilent 1100 binary pump (Agilent Technologies Inc., Wilmington, DE, USA), an 1100 micro-vacuum degasser, an HP 1050 autosampler and an HP 1050 variable wavelength detector (operated at 235 nm). The chromatographic separations of compounds 1–9 were conducted on an Agilent Zorbax SB-C18 analytical column (4.6 mm × 150 mm, 5 μm) using an isocratic elution of water containing 0.1% formic acid (pH ca. 3.0) and acetonitrile containing 0.1% formic acid with a changing ratio, depending on the compound. The analyses were conducted at room temperature (RT). The detailed procedure of chromatographic analysis was described in our previous paper. The studies were conducted in quadruplicates.
(§3) The protein concentrations in representative wells of each plate were assessed using a Bio-Rad protein assay according to the Bradford method (EnVision, PerkinElmer, Inc., Waltham, MA, USA).

[2] = system: MCF-7 cells; assay: Cell viability WST-1 assay, MCF-7; type: cell-based; conditions: Homo sapiens, MCF7; WST-1, 24 h, mean ± SD (n = 6–8); read-out: IC50 inhibition of MCF-7 cells' viability
Procedure: (§4) The viability of MCF-7 and MDA-MB-231 cells was determined using a colorimetric WST-1 assay (Takara, Takara Bio Europe, Saint-Germain-en-Laye, France). Both cell lines were seeded at a density of 1 × 10^4 per well on 96-well plates and were cultured for 24 h to obtain 70% confluence. The following day, the cells were treated with various concentrations of compounds 1–9 diluted in the cell culture medium ([…]). The cells were incubated with tested compounds or pure medium (control) for 24 h (37 °C, 5% CO2). Afterwards, the cells were washed with 100 μL of culture medium, and then, the reagent dissolved in the medium was added (100 μL). The plates were incubated at the standard condition for 1.5 h, and the absorbance was read at 450 nm using a microplate reader (iMARK, Bio-Rad, Bio-Rad Laboratories Inc., Hercules, CA, USA). […] The results of samples treated with the test compounds were expressed as a percentage of the control samples. The data were presented as mean ± standard deviation (SD), n = 8. IC50 values (the concentration of the tested compound that inhibited cell growth by 50%) were calculated using a concentration-response curve (GraphPad Prism, Software, San Diego, CA, USA).
(§5) The concentrations contributing to the 50% of cell growth inhibition (IC50) were calculated using nonlinear regression analysis (fitting the curve to log (concentration) vs. cellular response).

[3] = system: MDA-MB-231 cells; assay: Cellular uptake of metformin sulfonamides in MDA-MB-231 cells (HPLC); type: in vitro ADME, human
Procedure: as §1, §2, §3

[4] = system: OCTs; assay: Inhibition of [14C]choline uptake in MCF-7 cells (competitive inhibition assay); type: cell-based, human; conditions: mean ± SD (n = 3)
Procedure: (§6) The following day, after removal of the culture medium, the cells were carefully washed with prewarmed HBSS (Hanks’ balanced salt solution) containing 125 mM NaCl, 4.8 mM KCl, 1.2 mM MgSO4, 1.2 mM KH2PO4, 1.3 mM CaCl2, 5.6 mM glucose and 25 mM HEPES (pH 7.4). […] Then, the cells were washed three times with ice-cold HBSS (500 μL) and were lysed with 250 μL of 0.1-M NaOH in the ice bath, and the lysate was mixed with 1.0 mL of an emulsifier safe cocktail (PerkinElmer, Waltham, MA, USA). The radioactivity was measured by liquid scintillation counting (MicroBeta^2 counter, PerkinElmer, Waltham, MA, USA). The studies were carried out with the use of at least three replicates from the same cell passage.

[5] = system: MDA-MB-231 cells; assay: Uptake in the presence of OCT and MATE inhibitors, MDA-MB-231 cells; type: in vitro ADME, human; conditions: summary from uptake with inhibitors
Procedure: (§7) The uptake of sulfonamide derivatives of metformin (1–9) in MCF-7 and MDA-MB-231 cells was studied also in the presence of disopyramide, cimetidine (OCT1 and 3 inhibitors), lopinavir (OCT and PMAT inhibitor) and methenamine (MATE and OCT2 inhibitors). The cells were incubated (37 °C, 10 min) with compounds 1–9 at concentrations of 400 and 800 μmol/L and inhibitors (disopyramide, cimetidine, lopinavir or methenamine) in 250 μL of prewarmed HBSS buffer. The protocol of determination of the compound concentration was as described above.

[6] = system: OCTs; assay: Inhibition of [14C]choline uptake in MDA-MB-231 cells (competitive inhibition assay); type: cell-based, human; conditions: mean ± SD (n = 3)
Procedure: as §6

[7] = system: MCF-7 cells; assay: Uptake in the presence of OCT and MATE inhibitors, MCF-7 cells; type: in vitro ADME, human; conditions: for interactions with OCT, PMAT and MATE1 transporters, MCF-7: summary from uptake with inhibitors
Procedure: as §7

[8] = system: MDA-MB-231 cells; assay: Cell viability WST-1 assay, MDA-MB-231; type: cell-based; conditions: Homo sapiens, MDA-MB-231, 24 h, 3000 µmol/L, WST-1, 24 h; read-out: percentage of viability of MDA-MB-231 cells
Procedure: as §4, §5

[9] = system: MCF-7 cells; assay: Intracellular GSH and GSSG, MCF-7; type: cell-based, human; conditions: MCF-7, 24 h, reference agents: Ascorbic acid 200 µM, AAPH 10 mM
Procedure: (§8) The quantitative determination of glutathione and glutathione disulfide was performed using the enzymatic recycling method according to the protocol of Rahman. The cells were seeded at a density of 2 × 10^5 per well in a 6-well plate and cultured for 48 h. Then, the cells were treated with tested compounds 1, 4 and 7 at their respective ¼ and ½ IC50 values for MCF-7 and MDA-MB-231 cells. Additionally, controls with pure medium, AAPH (2,2′-Azobis(2-methylpropionamidine) dihydro-chloride, Sigma Aldrich, St. Louis, MO, USA) and ascorbic acid (Polish Chemical Reagents, Poland) were performed. The cells were incubated with compounds for another 24 h, then washed twice with 2 mL of cold, Ca^2+-/Mg^2+-free PBS (Biomed Lublin, Lublin, Poland). The cells were harvested using 1-mL accutase (Sigma Aldrich, St. Louis, MO, USA), and the wells were washed with 1 mL of cold growth medium. The cells were transferred to prechilled 2.0-mL Eppendorf tubes and centrifuged at 1000× g for 5 min at 4 °C. The supernatant was discarded, the pellets were resuspended in 1 mL of cold PBS, the number of cells was determined in each sample and the cellular suspension was centrifuged again. PBS was discarded, and the pellets were stored covered with 30-µL PBS at –70 °C. The following day, the cells were suspended in 0.5 mL of ice-cold extraction buffer (0.1% Triton-X (Polish Chemical Reagents, Gliwice, Poland) and 0.6% sulfosalicylic acid (Sigma Aldrich) in a potassium phosphate buffer with EDTA (Sigma Aldrich)) and sonicated in icy water for 3 min with vortexing every 30 s. The cells were frozen once again at −80 °C, defrosted on ice and frozen once again. Following the second freeze–thaw cycle, the cells were centrifuged at 1500× g for 5 min at 4 °C, and then, immediately, the supernatant was transferred to prechilled Eppendorf tubes. The samples were divided into two parts: one was used to measure GSH, and the other one was derivatized by an addition of 4 µL of 2-vinylpyridine (diluted 1:10 with phosphate buffer) (Sigma Aldrich, St. Louis, MO, USA) to determine the GSSG content.
(§9) GSH measurements included an addition of 20 µL of the tested sample, blank or GSH standard, 120 µL of the mixture of an equal volume of DTNB solution (2 mg dissolved in 3 mL of phosphate buffer, Sigma Aldrich) and glutathione reductase (10 U in 3 mL of phosphate buffer, Sigma Aldrich, St. Louis, MO, USA) and 30 s of incubation to allow the conversion of GSSG to GSH. The final step included the addition of 60 µL of β-NADPH (2 mg dissolved in 3 mL of phosphate buffer, Sigma Aldrich). The absorbance was read immediately at 415 nm in a microplate reader (Bio-Rad), and the measurements were taken every 30 s for 2 min (6 readings in total). The amount of GSH was calculated on the basis of the calibration curve prepared using GSH (Sigma Aldrich, St. Louis, MO, USA) at concentrations ranging from 0.040 to 2.6 nmol/mL.
(§10) The quantification of GSSG in the test samples was performed according to the same procedure as GSH. The samples treated with 2-VP were incubated for one hour at room temperature, and then, 20 µL of the tested sample was analyzed using the same reagents which were applied in the GSH measurements. The amount of GSSG was calculated on the basis of the calibration curve, prepared using GSSG (Sigma Aldrich) at concentrations of 0.040–2.6 nmol/mL. The results are presented as mean ± SD, n = 6–8 and expressed as nmol per […].

[10] = system: MDA-MB-231 cells; assay: Intracellular GSH and GSSG, MDA-MB-231; type: cell-based, human; conditions: MDA-MB-231, 24 h, reference agents: Ascorbic acid 200 µM, AAPH 10 mM
Procedure: as §8, §9, §10

[11] = Eadie-Hofstee analysis, transporter I
[12] = Eadie-Hofstee analysis, transporter I, read-out: Km, transporter I, MCF-7
[13] = Eadie-Hofstee analysis, transporter II
[14] = Eadie-Hofstee analysis, transporter I, read-out: Km, transporter I, MDA-MB-231
[15] = Eadie-Hofstee analysis, transporter II, read-out: Km, transporter II, MDA-MB-231
[16] = compound and inhibitor 400 and 800 µmol/L, 10 min, 37 °C

Row | IC50 [2] [µM] | IC50 [4] [µM] | interactions with OCT, PMAT and MATE1 transporters, MDA-MB-231 [5] | IC50 [6] [µM] | interactions with OCT, PMAT and MATE1 transporters, MCF-7 [7] | SMILES | Vmax, transporter I, MCF-7 [1, 11] [nmol/min/mg] | Km [1, 12] [mM] | Vmax, transporter I, MDA-MB-231 [3, 11] [nmol/min/mg] | Km [3, 14] [mM] | Vmax, transporter II, MDA-MB-231 [3, 13] [nmol/min/mg] | Km [3, 15] [mM] | viability at 3000 µM [8] [%] | GSH [9] [nmol/1 mln Cells] | GSH:GSSG Ratio [9] | GSSG [9] [nmol/1 mln Cells] | GSH [10] [nmol/1 mln Cells] | GSH:GSSG Ratio [10] | GSSG [10] [nmol/1 mln Cells] | other results
1 | 106 ± 12.3 | 888 ± 11.4 | OCT1, OCT3 | 593 ± 15 | OCT1, MATE1, PMAT | CN(C)C(=N)N=C(N)NS(=O)(=O)c1cccc(Br)c1 [Compound 5] | 1.635 ± 0.21 | 3.62 ± 0.619 | 0.038 ± 0.004 | 0.468 ± 0.109 | 0.098 ± 0.011 | 1.07 ± 0.204 | ~60 | – | – | – | – | – | – | Vmax, transporter II, MCF-7 [1, 13]: 2.167 ± 0.196 nmol/min/mg; Km ([1]; Eadie-Hofstee analysis, transporter II, read-out: Km, transporter II, MCF-7): 6.85 ± 0.713 mM; Vmax MCF-7 (Michaelis Menten curves) ([1]; Michaelis-Menten curve): 1.87 ± 0.95 nmol/min/mg; Km ([1]; Michaelis-Menten curve, read-out: Km MCF-7 (Michaelis Menten curves)): 4.94 ± 1.34 mM; uptake in the presence of disopyramide, MCF-7 [7, 16]: significantly reduced; uptake in the presence of lopinavir, MCF-7 [7, 16]: increased; uptake in the presence of methenamine, MCF-7 [7, 16]: increased
2 | 171 ± 13.6 | 7195 ± 5.3 | OCT1, OCT3 | 2284 ± 14 | OCT1 | CN(C)C(=N)N=C(N)NS(=O)(=O)c1cccc(F)c1 [Compound 8] | 0.830 ± 0.171 | 2.84 ± 0.778 | 0.049 ± 0.025 | 1.23 ± 1.31 | 0.045 ± 0.021 | 3.38 ± 2.13 | ~60 | – | – | – | – | – | – | uptake into MCF-7 cells at higher concentrations ([1]; concentrations above 1600 μmol/L): 8–10 nmol/min/mg of protein; Vmax MDA-231 cells (Michaelis Menten curves) ([3]; Michaelis-Menten curve): 0.126 ± 0.032 nmol/min/mg; Km ([3]; Michaelis-Menten curve, read-out: Km MDA-231 cells (Michaelis Menten curves)): 7.4 ± 0.51 mM; transport efficacy (Vmax/Km) in MCF-7 relative to MDA-MB-231 ([3]; fold lower in MDA-MB-231 than in MCF-7): approximately 22 fold
3 | – | – | – | – | – | CC(C)(N=NC(C)(C)C(=N)N)C(=N)N.Cl.Cl [AAPH, 2,2′-Azobis(2-methylpropionamidine) dihydrochloride, reference compound] | – | – | – | – | – | – | – | 117.6 ± 7.8 | 8.9 | 12.8 ± 0.5 | 102.7 ± 3.2 | 6.9 | 14.3 ± 1.9 | –
4 | – | – | – | – | – | O=C1O[C@H]([C@@H](O)CO)C(O)=C1O [Ascorbic acid, reference compound] | – | – | – | – | – | – | – | 153.1 ± 5.4 | 25.3 | 6.0 ± 0.4 | 249.6 ± 20.8 | 13.9 | 17.9 ± 1.5 | –
